# Laboratory results: PubChem BioAssay AID1259407 (Chemical Carcinogenesis Research Information System (CCRIS), 2018)
# Active and inactive are the calls of the source. No rule for the calls is given here.
# System: CCRIS mutagenicity, Ames/micronucleus/aberration tests
# Assay: CCRIS mutagenicity studies
# [1] = Test System: AMES SALMONELLA TYPHIMURIUM, Strain/Indicator: TA98, Metabolic Activation: NONE, Method: STANDARD PLATE
# [2] = Test System: AMES SALMONELLA TYPHIMURIUM, Strain/Indicator: TA100, Metabolic Activation: NONE, Method: STANDARD PLATE
# [3] = Test System: AMES SALMONELLA TYPHIMURIUM, Strain/Indicator: TA98, Metabolic Activation: RAT, LIVER, S-9, AROCLOR 1254, Method: STANDARD PLATE
# [4] = Test System: AMES SALMONELLA TYPHIMURIUM, Strain/Indicator: TA100, Metabolic Activation: NONE, Method: PREINCUBATION
# [5] = Test System: AMES SALMONELLA TYPHIMURIUM, Strain/Indicator: TA100, Metabolic Activation: RAT, LIVER, S-9, AROCLOR 1254, Method: STANDARD PLATE
structure (smiles),measurement,setting,value
CSCCl,mutagenic call,"Test System: AMES SALMONELLA TYPHIMURIUM, Strain/Indicator: TA98, Metabolic Activation: NONE, Method: SPOT TEST",inactive; negative
same,mutagenic call,"Test System: AMES SALMONELLA TYPHIMURIUM, Strain/Indicator: TA98, Metabolic Activation: RAT, LIVER, S-9, AROCLOR 1254, Method: SPOT TEST",inactive; negative
same,mutagenic call,"Test System: AMES SALMONELLA TYPHIMURIUM, Strain/Indicator: TA100, Metabolic Activation: NONE, Method: SPOT TEST",active; positive
same,mutagenic call,"Test System: AMES SALMONELLA TYPHIMURIUM, Strain/Indicator: TA100, Metabolic Activation: RAT, LIVER, S-9, AROCLOR 1254, Method: SPOT TEST",active; positive
same,mutagenic call,"Test System: AMES SALMONELLA TYPHIMURIUM, Strain/Indicator: TA102, Metabolic Activation: RAT, LIVER, S-9, AROCLOR 1254, Method: SPOT TEST",active; positive
Cc1ccc(N)c(O)c1,mutagenic call,"Test System: AMES SALMONELLA TYPHIMURIUM, Strain/Indicator: TA98, Metabolic Activation: HAMSTER LIVER S-9, AROCLOR 1254, Method: STANDARD PLATE",inactive; negative
same,mutagenic call,[1],inactive; negative
same,mutagenic call,"Test System: AMES SALMONELLA TYPHIMURIUM, Strain/Indicator: TA98, Metabolic Activation: RAT LIVER S-9, AROCLOR 1254, Method: STANDARD PLATE",inactive; negative
same,mutagenic call,"Test System: AMES SALMONELLA TYPHIMURIUM, Strain/Indicator: TA100, Metabolic Activation: HAMSTER LIVER S-9, AROCLOR 1254, Method: STANDARD PLATE",inactive; negative
same,mutagenic call,[2],active; positive
same,mutagenic call,"Test System: AMES SALMONELLA TYPHIMURIUM, Strain/Indicator: TA100, Metabolic Activation: RAT LIVER S-9, AROCLOR 1254, Method: STANDARD PLATE",inactive; negative
same,mutagenic call,"Test System: MOUSE LYMPHOMA, Strain/Indicator: L5178Y (TK+/TK-), Metabolic Activation: NONE, Method: SUSPENSION/PLATE",active; positive. reevaluation of results: positive
same,mutagenic call,"Test System: MOUSE LYMPHOMA, Strain/Indicator: L5178Y (TK+/TK-), Metabolic Activation: RAT, LIVER, S-9, AROCLOR 1254, Method: SUSPENSION/PLATE",active; positive. reevaluation of results: equivocal
c1ccc(C2CO2)cc1 (centres undefined),mutagenic call,"End Point: IN VITRO CHROMOSOMAL ABERRATIONS, Test System: CHL CELLS, Metabolic Activation: RAT, LIVER, S-9, SODIUM PHENOBARBITAL AND 5,6-BENZOFLAVONE",active; positive (structural changes)
same,mutagenic call,"Test System: AMES SALMONELLA TYPHIMURIUM, Strain/Indicator: TA97, Metabolic Activation: NONE, Method: STANDARD PLATE",active; positive
same,mutagenic call,"Test System: AMES SALMONELLA TYPHIMURIUM, Strain/Indicator: TA97, Metabolic Activation: RAT, LIVER, S-9, AROCLOR 1254, Method: STANDARD PLATE",inactive; negative
same,mutagenic call,"Test System: AMES SALMONELLA TYPHIMURIUM, Strain/Indicator: TA98, Metabolic Activation: HAMSTER, LIVER, S-9, AROCLOR 1254 (30%), Method: PREINCUBATION",inactive; negative
same,mutagenic call,[1],inactive; negative
same,mutagenic call,"Test System: AMES SALMONELLA TYPHIMURIUM, Strain/Indicator: TA98, Metabolic Activation: RAT LIVER S-9, PHENOBARBITAL AND BETA-NAPHTHOFLAVONE, Method: PREINCUBATION",inactive; negative
same,mutagenic call,"Test System: AMES SALMONELLA TYPHIMURIUM, Strain/Indicator: TA98, Metabolic Activation: RAT, LIVER, S-9, AROCLOR 1254 (30%), Method: PREINCUBATION",inactive; negative
same,mutagenic call,[3],inactive; negative
same,mutagenic call,"Test System: AMES SALMONELLA TYPHIMURIUM, Strain/Indicator: TA100, Metabolic Activation: HAMSTER, LIVER, S-9, AROCLOR 1254 (30%), Method: PREINCUBATION",active; positive
same,mutagenic call,[4],active; positive
same,mutagenic call,[2],active; positive
same,mutagenic call,"Test System: AMES SALMONELLA TYPHIMURIUM, Strain/Indicator: TA100, Metabolic Activation: RAT LIVER S-9, PHENOBARBITAL AND BETA-NAPHTHOFLAVONE, Method: PREINCUBATION",active; positive
same,mutagenic call,"Test System: AMES SALMONELLA TYPHIMURIUM, Strain/Indicator: TA100, Metabolic Activation: RAT, LIVER, S-9, AROCLOR 1254 (30%), Method: PREINCUBATION",active; positive
same,mutagenic call,[5],inactive; negative
same,mutagenic call,"Test System: AMES SALMONELLA TYPHIMURIUM, Strain/Indicator: TA104, Metabolic Activation: NONE, Method: STANDARD PLATE",active; positive
same,mutagenic call,"Test System: AMES SALMONELLA TYPHIMURIUM, Strain/Indicator: TA1535, Metabolic Activation: NONE, Method: PREINCUBATION",active; positive
same,mutagenic call,"Test System: AMES SALMONELLA TYPHIMURIUM, Strain/Indicator: TA1535, Metabolic Activation: NONE, Method: STANDARD PLATE",active; positive
same,mutagenic call,"Test System: AMES SALMONELLA TYPHIMURIUM, Strain/Indicator: TA1535, Metabolic Activation: RAT LIVER S-9, PHENOBARBITAL AND BETA-NAPHTHOFLAVONE, Method: PREINCUBATION",active; positive
same,mutagenic call,"Test System: AMES SALMONELLA TYPHIMURIUM, Strain/Indicator: TA1537, Metabolic Activation: NONE, Method: PREINCUBATION",active; positive
same,mutagenic call,"Test System: AMES SALMONELLA TYPHIMURIUM, Strain/Indicator: TA1537, Metabolic Activation: RAT LIVER S-9, PHENOBARBITAL AND BETA-NAPHTHOFLAVONE, Method: PREINCUBATION",inactive; negative
same,mutagenic call,"Test System: AMES SALMONELLA TYPHIMURIUM, Strain/Indicator: TA4001, Metabolic Activation: NONE, Method: STANDARD PLATE",active; positive
same,mutagenic call,"Test System: AMES SALMONELLA TYPHIMURIUM, Strain/Indicator: TA4006, Metabolic Activation: NONE, Method: STANDARD PLATE",active; positive
same,mutagenic call,"Test System: CHINESE HAMSTER V-79, Strain/Indicator: V-79/6-THIOGUANINE, Metabolic Activation: NONE, Method: FLASK ASSAY",inactive; negative
same,mutagenic call,"Test System: CHINESE HAMSTER V-79, Strain/Indicator: V-79/8-AZAGUANINE, Metabolic Activation: NONE, Method: STANDARD PLATE",active; positive
same,mutagenic call,"Test System: E. COLI, Strain/Indicator: WP2 UVRA, Metabolic Activation: NONE, Method: STANDARD PLATE",active; positive
same,mutagenic call,"Test System: E.COLI, Strain/Indicator: WP2UVRA, Metabolic Activation: NONE, Method: PREINCUBATION",active; positive
same,mutagenic call,"Test System: E.COLI, Strain/Indicator: WP2UVRA, Metabolic Activation: RAT LIVER S-9, PHENOBARBITAL AND BETA-NAPHTHOFLAVONE, Method: PREINCUBATION",active; positive
same,mutagenic call,"Test System: HUMAN T LYMPHOCYTES, PRIMARY CULTURES, Strain/Indicator: HPRT/6-THIOGUANINE, Metabolic Activation: NONE, Method: SUSPENSION/PLATE",active; positive
same,mutagenic call,"Test System: UDS HUMAN CELLS, Strain/Indicator: THY INCORP (NON-S-PHASE), Metabolic Activation: NONE, Method: LIQUID SCINTILLATION COUNTING",active; positive
O=[N+]([O-])c1cc2c3c(ccc2c2ccccc12)[C@H](O)[C@@H](O)C=C3,mutagenic call,"Test System: AMES SALMONELLA TYPHIMURIUM, Strain/Indicator: TA98, Metabolic Activation: NONE, Method: PREINCUBATION",active; positive
same,mutagenic call,[1],inactive; negative
same,mutagenic call,"Test System: AMES SALMONELLA TYPHIMURIUM, Strain/Indicator: TA98, Metabolic Activation: RAT, LIVER, S-9, AROCLOR 1254, Method: PREINCUBATION",inactive; negative
same,mutagenic call,[3],active; positive
same,mutagenic call,[4],active; positive
same,mutagenic call,[2],active; positive
same,mutagenic call,"Test System: AMES SALMONELLA TYPHIMURIUM, Strain/Indicator: TA100, Metabolic Activation: RAT, LIVER, S-9, AROCLOR 1254, Method: PREINCUBATION",active; positive
same,mutagenic call,[5],active; positive
same,mutagenic call,"Test System: CHINESE HAMSTER OVARY, Strain/Indicator: CHO-K1-BH4 (HGPRT)/6-THIOGUANINE, Metabolic Activation: NONE, Method: STANDARD PLATE",inactive; negative
same,mutagenic call,"Test System: CHINESE HAMSTER OVARY, Strain/Indicator: CHO-K1-BH4 (HGPRT)/6-THIOGUANINE, Metabolic Activation: RAT, LIVER, S-9, AROCLOR 1254, Method: STANDARD PLATE",active; positive
same,mutagenic call,"Test System: CHINESE HAMSTER OVARY, Strain/Indicator: CHO-UV5 (HGPRT)/6-THIOGUANINE, Metabolic Activation: NONE, Method: STANDARD PLATE",inactive; negative
same,mutagenic call,"Test System: CHINESE HAMSTER OVARY, Strain/Indicator: CHO-UV5 (HGPRT)/6-THIOGUANINE, Metabolic Activation: RAT, LIVER, S-9, AROCLOR 1254, Method: STANDARD PLATE",active; positive
